Source: patent US5486516A, “Furopyrimidine derivatives” (DowElanco, priority 1993, dated 1996)

What was measured:
[1] = test system: Pyricularia oryzae (rice blast); assay: whole plant or invertebrate; format: in vivo; conditions: foliar, read-out: RICE BLAST control rating
[2] = test system: Southern corn rootworm (Diabrotica undecimpuctata howardi Barber); assay: Mite/insect screen, corn rootworm; format: in vivo; conditions: CRW rate 24.00 ppm, soil; for mortality at 24 ppm: Diabrotica, read-out: CRW results (percent mortality)
Method in brief: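 Five 2-3 instar larvae per cup were placed on sandy soil (15 g, with presoaked corn seed) treated 6–12 h earlier with 1 mL test solution, an emulsified acetone/alcohol formulation diluted in water. Cups kept at 23° C; mortality and phytotoxicity assessed as percent after standard exposures.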

[3] = test system: southern armyworm (Spodopetra eridania Cramer); assay: Mite/insect screen, Southern armyworm; format: in vivo; conditions: rate 400 ppm, sprayed leaves; for mortality at 400 ppm: Spodoptera eridania, read-out: SAW results (percent mortality)
Method in brief: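 Southern armyworm larvae placed in Petri dishes with two excised squash leaves that had been sprayed to runoff (10 psi) with emulsified compound and air-dried for 1 h. Mortality in percent recorded after a standard exposure period; formulation acetone/alcohol plus Toximul R and S, water-diluted.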

[4] = test system: Twospotted spider mites (Tetranychus urticae Koch); assay: Mite/insect screen, twospotted spider mites; format: in vivo; conditions: rate 400 ppm, sprayed leaves; for mortality at 400 ppm: Tetranychus urticae, read-out: SM results (percent mortality)
Method in brief: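 Percent mortality, along with phytotoxicity, was read after standard exposure periods. Beforehand, mites established on both surfaces of squash cotyledons received a runoff spray (10 psi) of water-diluted compound formulated in acetone/alcohol with sulfonate/nonionic emulsifiers.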

[5] = test system: melon aphids (Aphis gossvpii Glover); assay: Mite/insect screen, melon aphids; format: in vivo; conditions: rate 400 ppm, sprayed leaves; for mortality at 400 ppm: Aphis, read-out: MA results (percent mortality)
Method in brief: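 Percent mortality of melon aphids was assessed after standard exposure periods. Infested squash cotyledons had been sprayed on both leaf surfaces until runoff at 10 psi with water-diluted test solutions. Compounds were formulated in acetone/alcohol (50:50) containing emulsifiers.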

[6] = test system: Puccinia recondita tritici (leaf rust); assay: Plant pathology screen (Test 1), leaf rust on wheat; conditions: in Triticum aestivum, foliar, read-out: LEAF RUST control rating
[7] = test system: Pseudoperonospora cubensis (downy mildew); assay: Plant pathology screen (Test 1), downy mildew on squash; conditions: foliar, read-out: DOWN MDEW control rating
[8] = test system: Erysiphe graminis tritici (powdery mildew); assay: Plant pathology screen (Test 1), powdery mildew on wheat; conditions: Blumeria graminis, in Triticum aestivum, foliar, read-out: POWD MDEW control rating
[9] = test system: Botrytis cinerea (gray mold); assay: Plant pathology screen (Test 1), gray mold on grape berries; conditions: read-out: GRAY MOLD control rating

| SMILES | pest or weed control at 400 µg/mL [1] [%] | mortality at 24 ppm [2] [%] | mortality at 400 ppm [3] [%] | mortality at 400 ppm [4] [%] | mortality at 400 ppm [5] [%] | pest or weed control at 400 µg/mL [6] [%] | pest or weed control at 400 µg/mL [7] [%] | pest or weed control at 400 µg/mL [8] [%] | pest or weed control at 400 µg/mL [9] [%] | CRW results (percent mortality) [2] [%] | SAW results (percent mortality) [3] [%] | SM results (percent mortality) [4] [%] | MA results (percent mortality) [5] [%] |
| --- | --- | --- | --- | --- | --- | --- | --- | --- | --- | --- | --- | --- | --- |
| Cc1coc2ncn(CCc3ccc4ccccc4c3)c(=N)c12 [Example 79, 5-methyl-3-[2-(2-naphthyl)ethyl]furo[2,3-d]pyrimidin-4(3H)-imine] | 20 to 89 | 0 | 0 | 0 | 0 | 20 to 89 | 90 to 100 | 0 to 19 | 0 to 19 | – | – | – | – |
| Cc1oc2ncn(CCc3cccc(C(F)(F)F)c3)c(=N)c2c1C [Example 81, 3-[2-[3-(trifluoromethyl)phenyl]ethyl]-5,6-dimethylfuro[2,3-d]pyrimidin-4(3H)-imine] | 90 to 100 | 0 | 0 | 0 | 0 | 90 to 100 | 90 to 100 | 20 to 89 | 0 to 19 | 0 | 0 | 0 | 0 |
